“And” between values parts separate entries of the source, which are not always exact repeats. Equal entries are not always repeated. Toxic doses and inconclusive results are not listed. Rule for the calls: active = survival T/C of 150% or more; inactive = T/C below 125% in these data. Square brackets hold non-standard residues; d marks the D form. Peptide text beside a SMILES is read from it. * marks the point of attachment. Cbz = O=C(OCc1ccccc1)*; Nva = CCC[CH](N)C(=O)O
Test system: P388 leukemia ip, CD2F1 mice, survival T/C
Assay: NCI In Vivo Anticancer Drug Screen. Data for tumor model P388 Leukemia (intraperitoneal) in CD2F1 (CDF1) mice
Conditions: endpoint: median survival time, higher = longer survival
In short: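 Mice carrying the transplanted tumor received test compound or vehicle. Survival was recorded in each group, and the value is the treated-group measurement divided by that of the vehicle-treated control group.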

[1] = dose: 50.0 mg/kg/injection, schedule: Q01DX009 (ip), vehicle: saline with Tween-80
[2] = dose: 100.0 mg/kg/injection, schedule: Q01DX009 (ip), vehicle: saline with Tween-80
[3] = dose: 200.0 mg/kg/injection, schedule: Q01DX009 (ip), vehicle: saline with Tween-80
[4] = dose: 12.5 mg/kg/injection, schedule: Q01DX009 (ip), vehicle: saline with Tween-80
[5] = dose: 25.0 mg/kg/injection, schedule: Q01DX009 (ip), vehicle: saline with Tween-80
[6] = dose: 12.5 mg/kg/injection, schedule: Q01DX009 (ip), vehicle: saline
[7] = dose: 25.0 mg/kg/injection, schedule: Q01DX009 (ip), vehicle: saline
[8] = dose: 50.0 mg/kg/injection, schedule: Q01DX009 (ip), vehicle: saline
[9] = dose: 240.0 mg/kg/injection, schedule: Q01DX005 (ip), vehicle: saline with Tween-80
[10] = dose: 12.5 mg/kg/injection, schedule: Q01DX005 (ip), vehicle: saline with Tween-80
[11] = dose: 25.0 mg/kg/injection, schedule: Q01DX005 (ip), vehicle: saline with Tween-80
[12] = dose: 50.0 mg/kg/injection, schedule: Q01DX005 (ip), vehicle: saline with Tween-80
[13] = dose: 200.0 mg/kg/injection, schedule: Q01DX005 (ip), vehicle: saline with Tween-80
[14] = dose: 50.0 mg/kg/injection, schedule: Q01DX009 (ip), vehicle: Klucel (hydroxypropylcellulose) (HPC)
[15] = dose: 100.0 mg/kg/injection, schedule: Q01DX009 (ip), vehicle: Klucel (hydroxypropylcellulose) (HPC)
[16] = dose: 200.0 mg/kg/injection, schedule: Q01DX009 (ip), vehicle: Klucel (hydroxypropylcellulose) (HPC)
[17] = dose: 60.0 mg/kg/injection, schedule: Q01DX005 (ip), vehicle: saline with Tween-80
[18] = dose: 120.0 mg/kg/injection, schedule: Q01DX005 (ip), vehicle: saline with Tween-80
[19] = dose: 25.0 mg/kg/injection, schedule: Q01DX009 (ip), vehicle: Klucel (hydroxypropylcellulose) (HPC)
[20] = dose: 25.0 mg/kg/injection, schedule: Q01DX005 (ip), vehicle: Klucel (hydroxypropylcellulose) (HPC)
[21] = dose: 50.0 mg/kg/injection, schedule: Q01DX005 (ip), vehicle: Klucel (hydroxypropylcellulose) (HPC)
[22] = dose: 100.0 mg/kg/injection, schedule: Q01DX005 (ip), vehicle: Klucel (hydroxypropylcellulose) (HPC)
[23] = dose: 400.0 mg/kg/injection, schedule: Q01DX009 (ip), vehicle: saline with Tween-80
[24] = dose: 100.0 mg/kg/injection, schedule: Q01DX005 (ip), vehicle: saline with Tween-80

Measured: T/C

COC(=O)C1(CC(=O)c2cccc([N+](=O)[O-])c2)NC(=S)NC(=O)C1C#N (stereo unspecified)
inactive: dose: 60.0 mg/kg/injection, schedule: Q01DX005 (ip), vehicle: suspension in saline 100 % of control | dose: 120.0 mg/kg/injection, schedule: Q01DX005 (ip), vehicle: suspension in saline 90 % of control | dose: 240.0 mg/kg/injection, schedule: Q01DX005 (ip), vehicle: suspension in saline 90 % of control

NC(=S)N/N=C\C(=O)c1cccc(O)c1
inactive: [1] 99 % of control | [2] 100 % of control | [3] 105 % of control

Cc1ccc(S(=O)(=O)NC(=O)NC(C)Cc2ccccc2)cc1 (stereo unspecified)
inactive: [4] 102 % of control | [5] 100 % of control | [1] 101 % of control and 105 % of control | [3] 98 % of control

Cc1cc(OC(=O)Nc2ccc(C)c([N+](=O)[O-])c2)c(Br)cc1Cl
inactive: [6] 100 % of control | [7] 93 % of control | dose: 50.0 mg/kg/injection, schedule: Q01DX009 (ip), vehicle: saline + alcohol 96 % of control | [8] 100 % of control | dose: 100.0 mg/kg/injection, schedule: Q01DX009 (ip), vehicle: saline + alcohol 99 % of control

COc1cccc(/C=N\NC(=O)CNC(=O)Nc2ccc(Cl)c(Cl)c2)c1OC
inactive: dose: 15.0 mg/kg/injection, schedule: Q01DX005 (ip), vehicle: saline with Tween-80 91 % of control | dose: 30.0 mg/kg/injection, schedule: Q01DX005 (ip), vehicle: saline with Tween-80 88 % of control | [9] 95 % of control

S=c1[nH]c(=S)c2[nH]c(=S)[nH]c2[nH]1
inactive: [10] 92 % of control | [11] 96 % of control | [12] 90 % of control and 95 % of control | [13] 89 % of control

C/C(=C\c1ccccc1)C1C(C#N)C(=O)NC(=O)C1C#N (stereo unspecified)
inactive: [14] 101 % of control | [15] 105 % of control | [16] 106 % of control

O=C1OCc2c1cc1n(c2=O)Cc2cc3ccccc3nc2-1
inactive: dose: 1.0 mg/kg/injection, schedule: Q01DX009 (ip), vehicle: saline with Tween-80 99 % of control and 114 % of control and 115 % of control | dose: 2.0 mg/kg/injection, schedule: Q01DX009 (ip), vehicle: saline with Tween-80 105 % of control

COC(=O)/C=C1/Nc2ccc(Cl)cc2C(=O)NC1=O
inactive: [17] 95 % of control | [18] 93 % of control | [9] 93 % of control

COc1cc2c3c(c1)/C(=N\Nc1ccccc1)CCN3CCC2
inactive: dose: 3.12 mg/kg/injection, schedule: Q01DX009 (ip), vehicle: DMSO 99 % of control

O=c1c2ccccc2nc(-c2ccccc2)n1O
inactive: dose: 12.5 mg/kg/injection, schedule: Q01DX009 (ip), vehicle: Klucel (hydroxypropylcellulose) (HPC) 103 % of control and 112 % of control | [19] 118 % of control and 94 % of control | [14] 120 % of control | [15] 94 % of control | [16] 91 % of control

Cc1cc2cccc(Br)c(=O)c2o1
inactive: dose: 6.25 mg/kg/injection, schedule: Q01DX001 (ip), vehicle: saline with Tween-80 95 % of control | dose: 12.5 mg/kg/injection, schedule: Q01DX001 (ip), vehicle: saline with Tween-80 100 % of control | dose: 25.0 mg/kg/injection, schedule: Q01DX001 (ip), vehicle: saline with Tween-80 104 % of control

CCC(C)(C)c1cccc(C(=O)O)c1O
inactive: dose: 25.0 mg/kg/injection, schedule: Q04DX003 (ip), vehicle: saline with Tween-80 100 % of control | dose: 50.0 mg/kg/injection, schedule: Q04DX003 (ip), vehicle: saline with Tween-80 118 % of control | dose: 100.0 mg/kg/injection, schedule: Q04DX003 (ip), vehicle: saline with Tween-80 106 % of control and 112 % of control

CCCCCCC(/C=C/c1ccc(Cl)c(Cl)c1)=N\Nc1ccccc1
inactive: dose: 6.25 mg/kg/injection, schedule: Q01DX009 (ip), vehicle: saline with Tween-80 103 % of control | [4] 97 % of control | [5] 103 % of control | [1] 100 % of control

FC(F)(F)C(F)(F)C(F)(F)c1nnc(-c2ccc(Cl)cc2Cl)o1
inactive: dose: 100.0 mg/kg/injection, schedule: Q01DX001 (ip), vehicle: saline with Tween-80 95 % of control | dose: 200.0 mg/kg/injection, schedule: Q01DX001 (ip), vehicle: saline with Tween-80 100 % of control | dose: 400.0 mg/kg/injection, schedule: Q01DX001 (ip), vehicle: saline with Tween-80 96 % of control

CN(C)C1=NC(NC2CCCCC2)(N(C)C)OC(N(C)C)=N1 (stereo unspecified)
inactive: [20] 105 % of control | [21] 96 % of control | [22] 100 % of control

CCOC(=O)C(C(=O)OCC)=C(C)/C=C/C(Cl)(Cl)Cl
inactive: dose: 100.0 mg/kg/injection, schedule: Q04DX002 (ip), vehicle: saline with Tween-80 110 % of control | dose: 200.0 mg/kg/injection, schedule: Q04DX002 (ip), vehicle: saline with Tween-80 102 % of control | dose: 400.0 mg/kg/injection, schedule: Q04DX002 (ip), vehicle: saline with Tween-80 98 % of control

CC(N)(CCS(=O)(=O)CP(=O)(O)O)C(=O)O (stereo unspecified)
inactive: dose: 60.0 mg/kg/injection, schedule: Q01DX005 (ip), vehicle: saline 103 % of control | dose: 120.0 mg/kg/injection, schedule: Q01DX005 (ip), vehicle: saline 97 % of control | dose: 240.0 mg/kg/injection, schedule: Q01DX005 (ip), vehicle: saline 93 % of control

CC(C)C(C(O)c1ccccc1)[N+](=O)[O-] (stereo unspecified)
inactive: [2] 104 % of control | [3] 95 % of control | [23] 86 % of control

CN(C)C1C(=O)C(C(N)=O)=C(O)C2(O)C(=O)C3=C(O)c4c(O)cccc4C(C)(O)C3CC12.O.O.O.[Al] (stereo unspecified)
inactive: [19] 95 % of control | [12] 99 % of control | [14] 92 % of control | [24] 99 % of control | [15] 103 % of control | [13] 99 % of control | [16] 106 % of control | dose: 400.0 mg/kg/injection, schedule: Q01DX009 (ip), vehicle: Klucel (hydroxypropylcellulose) (HPC) 107 % of control

[SeH]c1ccccc1
inactive: dose: 7.5 mg/kg/injection, schedule: Q01DX009 (ip), vehicle: saline with Tween-80 106 % of control | dose: 15.0 mg/kg/injection, schedule: Q01DX009 (ip), vehicle: saline with Tween-80 113 % of control | dose: 30.0 mg/kg/injection, schedule: Q01DX009 (ip), vehicle: saline with Tween-80 116 % of control

CCCC(NC(=O)C(Cc1ccccc1)NC(=O)OCc1ccccc1)C(=O)O (stereo not drawn) (Cbz-Phe-[Nva]-OH; configuration not given here)
inactive: [12] 104 % of control | [24] 101 % of control | [13] 98 % of control

COc1ccc([N+](=O)[O-])cc1NS(=O)(=O)c1ccc(NC(C)=O)cc1
inactive: [14] 100 % of control | [15] 99 % of control | [16] 99 % of control

CC(=O)Nc1ccc(S(=O)(=O)NC(C)=O)cc1
inactive: [6] 100 % of control | [7] 98 % of control | [8] 108 % of control | dose: 100.0 mg/kg/injection, schedule: Q01DX009 (ip), vehicle: saline 100 % of control

CC(C)(C)C(S)CS (stereo unspecified)
inactive: [10] 104 % of control | [11] 104 % of control | [12] 101 % of control and 103 % of control

CC(O)C(O)C=O (stereo unspecified)
inactive: dose: 248.0 mg/kg/injection, schedule: Q01DX010 (ip), vehicle: saline 110 % of control

N=Cc1cc([N+](=O)[O-])ccc1O
inactive: [17] 105 % of control | [18] 104 % of control

O=C(/C=C/C(=O)OCC(Cl)(Cl)Cl)OCC(Cl)(Cl)Cl
inactive: [2] 100 % of control | [3] 114 % of control | [23] 106 % of control

CCN(CC)CCOC(=O)c1c[nH]c2ccccc12
inactive: dose: 6.25 mg/kg/injection, schedule: Q01DX005 (ip), vehicle: Klucel (hydroxypropylcellulose) (HPC) 100 % of control | dose: 12.5 mg/kg/injection, schedule: Q01DX005 (ip), vehicle: Klucel (hydroxypropylcellulose) (HPC) 105 % of control | [20] 105 % of control | [21] 98 % of control and 95 % of control | [22] 100 % of control

Source: PubChem BioAssay AID330 (DTP/NCI, 2004)
